Assays:
[1] = tested on: ulcers in rats at the stomach level; assay: Anti-ulcer activity, Shay method (pylorus ligature in rats); format: in vivo; conditions: oral, about 16 hours after treatment
Source text: (1) Determination of Anti-Ulcer Activity
The method used is described by SHAY et al. in Gastroenterology, 5, 43 (1945).
The Shay method consists of inducing ulcers in rats at the stomach level by ligature of the pylorus.
The animals are anesthetized with ether. A longitudinal incision is made about 1 cm below the sternum, the glandular part of the stomach and the duodenum are exposed, and a ligature is placed several mm below the pylorus. The muscular sheet is left as it is, and the skin is sutured with two clips.
As soon as possible afterwards, the animals receive the dispersive or the substance to be studied via the mouth in a volume of 0.5 ml/100 g and are kept without food or drink until sacrificed by carotid bleeding, which takes place about 16 hours after the treatment.
Before removing the stomach, a ligature is placed above the cardia.
The gastric liquid is collected in order to measure the pH.
The stomach is then opened along the major curvature, rinsed with physiological serum, and spread out on millimeter paper to be examined under a binocular magnifier.
The severity of the lesions is evaluated macroscopically and graded from 0 to 4 for each stomach.
The mean intensity of ulcerations is determined for each group of rats, and the protection is calculated by taking the ratio of the mean index of the treated group to the mean index of the control group.
The value of the gastric pH for the treated and control animals are likewise determined.

[2] = Determination of acute toxicity (LD50, oral, mice); conditions: mouse, in vivo, oral administration
Experimental: (2) Determination of Acute Toxicity
The lethal dose, LD50, of the compounds of Examples 1-8 was evaluated in mice after oral administration.

[3] = Rattus norvegicus, 0.4 mg/kg, read-out: Ulcerations % of protection with respect to controls
[4] = Rattus norvegicus, 2 mg/kg, read-out: Ulcerations % of protection with respect to controls
[5] = Rattus norvegicus, 10 mg/kg, read-out: Ulcerations % of protection with respect to controls
[6] = Rattus norvegicus, 50 mg/kg, read-out: Ulcerations % of protection with respect to controls
[7] = Rattus norvegicus, 0.8 mg/kg, read-out: Ulcerations % of protection with respect to controls
[8] = Rattus norvegicus, 4 mg/kg, read-out: Ulcerations % of protection with respect to controls
[9] = Rattus norvegicus, 20 mg/kg, read-out: Ulcerations % of protection with respect to controls

| SMILES | inhibition in vivo at 2 mg/kg [1, 4] | inhibition in vivo at 10 mg/kg [1, 5] | pH of gastric liquid, treated animals ([1]; 2 mg/kg) | pH of gastric liquid, treated animals ([1]; 10 mg/kg) | LD50 [2] | inhibition in vivo at 4 mg/kg [1, 8] | inhibition in vivo at 20 mg/kg [1, 9] | pH of gastric liquid, treated animals ([1]; 4 mg/kg) | pH of gastric liquid, treated animals ([1]; 20 mg/kg) | other results |
| --- | --- | --- | --- | --- | --- | --- | --- | --- | --- | --- |
| O=C(O)/C=C/C(=O)c1ccc(F)cc1 [Example 3, (E) 4-(4-fluorophenyl)-4-oxo-2-butenoic acid] | 43% | 100% | 2.8 | 4.0 | ~300 mg/kg |  |  |  |  | inhibition in vivo at 0.4 mg/kg [1, 3]: 20%; pH of gastric liquid, treated animals ([1]; 0.4 mg/kg): 3.1 |
| O=C(O)/C=C/C(=O)c1ccc2c(c1)OCO2 [Example 8, (E) 4-(3,4-methylenedioxyphenyl)-4-oxo-2-butenoic acid] | 33% | 60% | 3.2 | 3.3 | ~400 mg/kg |  |  |  |  | inhibition in vivo at 50 mg/kg [1, 6]: 100%; pH of gastric liquid, treated animals ([1]; 50 mg/kg): 5.4 |
| O=C(O)/C=C/C(=O)c1ccc(C(F)(F)F)cc1 [Example 6, (E) 4-(4-trifluoromethylphenyl)-4-oxo-2-butenoic acid] |  |  |  |  | ~600 mg/kg | 55% | 67% | 2.3 | 2.8 | inhibition in vivo at 0.8 mg/kg [1, 7]: 20%; inhibition in vivo at 100 mg/kg ([1]; Rattus norvegicus, 100 mg/kg, read-out: Ulcerations % of protection with respect to controls): 98%; pH of gastric liquid, treated animals ([1]; 0.8 mg/kg): 1.4; pH of gastric liquid, treated animals ([1]; 100 mg/kg): 6.3 |
| COc1ccc(C(=O)/C=C/C(=O)O)cc1OC [Example 1, (E) 4-(3,4-dimethoxyphenyl)-4-oxo-2-butenoic acid] |  |  |  |  | ~500 mg/kg | 83% | 100% | 2.6 | 4.3 | inhibition in vivo at 0.8 mg/kg [1, 7]: 0%; pH of gastric liquid, treated animals ([1]; 0.8 mg/kg): 2.9 |
| O=C(O)/C=C/C(=O)c1ccccc1[N+](=O)[O-] [Example 5, (E) 4-(2-nitrophenyl)-4-oxo-2-butenoic acid] |  |  |  |  | ~500 mg/kg | 19% | 100% | 3.3 | 4.3 |  |
| COc1ccc(OC)c(C(=O)/C=C/C(=O)O)c1 [Example 7, (E) 4-(2,5-dimethoxyphenyl)-4oxo-2-butenoic acid] | 93% | 88% | 2.8 | 3.0 | ~300 mg/kg |  |  |  |  | inhibition in vivo at 0.4 mg/kg [1, 3]: 0%; inhibition in vivo at 50 mg/kg [1, 6]: 100%; pH of gastric liquid, treated animals ([1]; 0.4 mg/kg): 3.0; pH of gastric liquid, treated animals ([1]; 50 mg/kg): 4.2 |
| O=C(O)/C=C/C(=O)c1ccc(Cl)c(Cl)c1 [Example 4, (E) 4-(3,4-dichlorophenyl)-4-oxo-2-butenoic acid] |  |  |  |  | ~500 mg/kg | 14% | 71% | 3.1 | 4.1 |  |
| O=C(O)/C=C/C(=O)c1ccc(Cl)cc1 [Example 2, (E) 4-(4-chlorophenyl)-4-oxo-2-butenoic acid] |  |  |  |  | ~200 mg/kg |  |  |  |  | inhibition in vivo at 1 mg/kg ([1]; Rattus norvegicus, 1 mg/kg, read-out: Ulcerations % of protection with respect to controls): 0%; inhibition in vivo at 5 mg/kg ([1]; Rattus norvegicus, 5 mg/kg, read-out: Ulcerations % of protection with respect to controls): 57%; inhibition in vivo at 25 mg/kg ([1]; Rattus norvegicus, 25 mg/kg, read-out: Ulcerations % of protection with respect to controls): 100%; pH of gastric liquid, treated animals ([1]; 1 mg/kg): 3.0; pH of gastric liquid, treated animals ([1]; 5 mg/kg): 3.0; pH of gastric liquid, treated animals ([1]; 25 mg/kg): 5.6 |

From patent US4483868A, “Gastro-protecting activity” (Roussel Uclaf, priority 1980, dated 1984)
